We go through three compounds from paper PMC11050087, “Polyphenols from Maackia amurensis Heartwood Protect Neuronal Cells from Oxidative Stress and Prevent Herpetic Infection” (International Journal of Molecular Sciences, 2024).

The subject of data set [1] is HSV-1. The experiment in a line: Virucidal activity, RT-PCR assay (HSV-1 pretreated with compounds). The following applies: for Ct: 72 h; for −ΔCt: vs virus control; for activity at 0.1 µg/mL / activity at 1 µg/mL / activity at 10 µg/mL / log reduction at 0.1 µg/mL / log reduction at 1 µg/mL / log reduction at 10 µg/mL: Human alphaherpesvirus 1, 72 h; for activity at 0.1 µg/mL / activity at 1 µg/mL / activity at 10 µg/mL: read-out: 2^−ΔCt; for log reduction at 0.1 µg/mL / log reduction at 1 µg/mL / log reduction at 10 µg/mL: read-out: log10. It counts as cell-based, HSV-1 strain L2. How it is done: Vero cells grown on 96-well plates were infected with the virus (100 TCID50/mL), pretreated with polyphenolic compounds at concentrations 0.1, 1 and 10 μg/mL. After 72 h of cell incubation, viral DNA was extracted from the supernatants, and the relative level of HSV-1 DNA was determined using RT-PCR. The effect of polyphenols on the relative level of viral DNA was assessed using the 2^−∆Ct method and reported as fold reduction compared to virus control.
(§1) The HSV-1 strain L2 obtained from N.F. Gamaleya Federal Research Centre for Epidemiology and Microbiology (Moscow, Russia) was grown in Vero cells as previously described.
(§2) We determined the direct inhibitory effect of polyphenolic compounds from M. amurensis heartwood on HSV-1 (virucidal effect). We mixed the virus at an infectious dose (100 TCID50/mL) with polyphenolic compounds (from 0.1 to 100 µg/mL) at a ratio of 1:1 (v/v) and incubated for an hour at 37 °C. Then, we infected the monolayer of Vero cells grown on 96-well plates (1 × 10^4 cells/well) with HSV-1 pretreated with the studied compounds. After 1 h adsorption at 37 °C, the cells were washed with phosphate-buffered saline (PBS) and overlaid by the maintenance medium with 1% FBS. The plates were incubated for 72 h at 37 °C in a CO2-incubator. The cytopathic effect (CPE) inhibition assay and real-time reverse transcription-PCR (RT-PCR) assay were used to evaluate virucidal effect of the tested compounds.
We performed the RT-PCR assay as we previously described in detail in [22]. Briefly, HSV-1 DNA was extracted after incubation from cell supernatants by using the DNA-sorb-AM (K1-12-100-CE) nucleic acid extraction kit (AmpliSens®, Moscow, Russia) according to the manufacturer′s instructions. We treated the supernatants with a lysis solution that contained guanidine chloride (chaotropic agent) in the presence of sorbent (silica particles). As the elution solution was added, the DNA was […] silica particles and separated from the sorbent particles by centrifugation.
We detected the DNA of HSV-1 in the obtained samples using the AmpliSens® HSV I, II-FRT-100F PCR kit (AmpliSens®, Moscow, Russia) on a real-time PCR instrument Rotor-Gene Q (Qiagen, Hilden, Nordrhein-Westfalen, Germany) according to the manufacturer′s instructions. The PCR reaction conditions were the following: initial denaturation at 95 °C for 15 min; then 5 cycles at 95 °C for 5 s, at 60 °C for 20 s, at 72 °C for 15 s; then 40 cycles at 95 °C for 5 s, at 60 °C for 20 s, and at 72 °C for 15 s. A negative sample was used as the amplification control for each run. The threshold cycle number Ct, was measured as the PCR cycle, where the amount of the amplified target reached the threshold value; the Ct values ≥ 37 indicated the absence of the HSV-1 DNA in the samples. We assessed the anti-HSV-1 activity of the studied compounds by the reduction in the viral DNA levels using the 2^−ΔCt method according to Equation (2):(2) ΔCt=Ctcv−Cttv where Ct is the threshold cycle number measured as the PCR cycle, where the amount of the amplified target reached the threshold value, […]

The nature of data set [2]: Cytotoxicity against Vero cells (MTT assay). It counts as cell-based. The following applies: African green monkey. How it is done: We prepared the stock solutions of the tested compounds (10 mg/mL) in DMSO (Sigma, St. Louis, MO, USA). For the MTT assay and further studies of anti-HSV-1 activity, we diluted the stock solutions with DMEM so that the final concentration of DMSO was 0.5%.
We used MTT assay to determine the cytotoxic effect of the tested compounds against Vero cells. We performed the MTT assay as previously described.

The test system of data set [3] is HSV-1. The experiment in a line: Virucidal activity, CPE inhibition assay (HSV-1 pretreated with compounds). It counts as cell-based, HSV-1 strain L2. The following applies: for IC50: Human alphaherpesvirus 1, virus pretreated with compound (virucidal), CPE assay, Vero cells, 100 TCID50/mL; for SI: ratio of CC50 to IC50, virucidal scheme. How it is done:
The antiviral activity of polyphenols from M. amurensis against HSV-1 was assessed using the cytopathic effect inhibition (CPE) assay. To study the inhibitory effect of polyphenolic compounds directly on the HSV-1 virus (direct virucidal activity), the monolayer of Vero cells grown on 96-well plates (1 × 10^4 cells/well) was infected with the virus (100 TCD50/mL), pretreated with different concentrations of polyphenolic compounds.
as §1, §2
We previously described this method in detail in [22]. We performed the MTT assay to evaluate the antiviral activity of polyphenolic compounds. The viral inhibition rate (IR, %) was calculated according to Equation (1):(1) IR, %=Atv−Acv/Acd−Acv×100, where Atv is the absorbance of cells infected with HSV-1 pretreated with the studied compounds,
We calculated the selectivity index (SI) as the ratio of CC50 to IC50. Experiments were repeated three times.

Data set [4] deals with 6-OHDA-treated Neuro-2a cells. The experiment in a line: ROS analysis in 6-OHDA-treated cells (H2DCF-DA). It counts as cell-based, murine. The following applies: compound 1 µM; 6-OHDA 120 µM. The procedure: We studied the effect of polyphenolic compounds set on ROS levels in 6-OHDA-treated Neuro-2a cells (Figure 5a–d).
Figure 5 The effect of polyphenolic compounds isolated from M. amurensis heartwood on ROS levels in Neuro-2a cells treated with 6-OHDA (120 μM) (a–d). Polyphenolic compounds isolated from M. amurensis heartwood were used at concentrations 10, 1, 0.1 μM. The data are presented as means ± SEM of three independent replicates.
After 24 h of adhesion, Neuro-2a cells (5 × 10^4 cells/mL) were incubated with polyphenolic compounds at concentrations of 0.1, 1, and 10 µM for 1 h. Then, 120 µM of 6-OHDA or 1 mM of PQ were added to each well, and cells were incubated for 1 h. To study the ROS formation, 20 µL of 2,7-dichlorodihydrofluorescein diacetate solution (H2DCF-DA, Sigma-Aldrich, St. Louis, MO, USA) were added to each well, so that the final concentration was 10 µM. Then, the microplate was incubated for 30 min at 37 °C.

Data set [5] deals with 6-OHDA-treated Neuro-2a cells. The experiment in a line: 6-OHDA-induced neurotoxicity model, cell viability test (MTT). It counts as cell-based, murine. The following applies: compounds at 10, 1, 0.1 µM; 6-OHDA 100 µM. How it is done: Neuro-2a cells were incubated with the studied polyphenolic compounds for 1 h. Then, 100 µM of 6-hydroxydopamine 6-OHDA were added. We determined the percentage of living Neuro-2a cells after treatment with 6-OHDA (Figure 4a–d).
Figure 4 The effect of polyphenolic compounds isolated from M. amurensis heartwood on the viability of Neuro-2a cells treated with 6-OHDA (100 μM) (a–d). The viability of Neuro-2a cells treated with various compounds and 6-OHDA was measured by the MTT assay. Polyphenolic compounds isolated from M. amurensis heartwood were used at concentrations 10, 1, 0.1 μM. The data are presented as means ± SEM of three independent replicates. (*) indicate p < 0.05 versus 6-OHDA-treated cells.
After 24 h of adhesion, Neuro-2a cells (5 × 10^4 cells/mL) were treated with polyphenolic compounds at concentrations of 0.1, 1 and 10 μM for 1 h. Then, 100 µM of 6-OHDA or 1 mM of PQ (Sigma-Aldrich, St. Louis, MO, USA) were added. Cells incubated without inductors or with inductors were used as positive and negative control, respectively. Cell viability was measured after 24 h using the MTT assay.

Where “and” joins values, the source holds several entries; their conditions need not be identical. Identical values can stand only once.

For the compound `COc1ccc([C@H]2COc3cc(O)ccc3[C@@H]2c2c(O)cc(O)cc2/C=C/c2ccc(O)c(O)c2)c(O)c1` [Compound 14, maackiapicevestitol], in the data set on HSV-1 [1] (0.1 µg/mL), the Ct was found to be 18.4 ± 2.4 and the “−ΔCt” value is −0.30 ± 0.03. Besides, in the data set with HSV-1 [1] (1 µg/mL), the Ct was found to be 19.2 ± 2.5 and the “−ΔCt” value is −1.1 ± 0.1. For the same compound, in the data set with HSV-1 [1] (10 µg/mL), the “anti-HSV-1 activity by RT-PCR (in words)” value was “significantly reduced the level of viral DNA”, the Ct is 27.1 ± 3.8 and the “−ΔCt” value is reported as −9.0 ± 1.2. In the data set with HSV-1 [1], the activity at 0.1 µg/mL came to 81.2 ± 11%, the activity at 1 µg/mL is 46.6 ± 5.6%, the activity at 10 µg/mL is 0.195 ± 0.02% and the log reduction at 0.1 µg/mL worked out at 0.09 ± 0.01. In addition, in the data set on HSV-1 [1], the log reduction at 1 µg/mL stood at 0.33 ± 0.04 and the log reduction at 10 µg/mL came out at 2.7 ± 0.3. The CC50 in data set [2] is 162 µg/mL and 316 µM. In the data set with HSV-1 [3], the IC50 was 8.6 µg/mL and 16.7 µM; the SI came to 18.9 ± 2.8.
With `COc1ccc(-c2coc3c4c(ccc3c2=O)O[C@@H](c2cc(O)cc(O)c2)[C@H](c2ccc(O)c(O)c2)O4)cc1` [Compound 10, maackiazin], in the data set on HSV-1 [1] (0.1 µg/mL), the Ct amounted to 18.4 ± 2.4 and the “−ΔCt” value is listed as −0.300 ± 0.03. Further, in the data set with HSV-1 [1] (1 µg/mL), the Ct is 20.2 ± 2.6 and the “−ΔCt” value is −2.1 ± 0.3. Further, in the data set with HSV-1 [1] (10 µg/mL), the “anti-HSV-1 activity by RT-PCR (in words)” value is given as “significantly reduced the level of viral DNA”, the Ct is reported as 28.0 ± 3.9 and the “−ΔCt” value is −9.9 ± 1.1. In the data set with HSV-1 [1], the activity at 0.1 µg/mL came out at 81.2 ± 11%, the activity at 1 µg/mL turned out to be 23.3 ± 3%, the activity at 10 µg/mL was found to be 0.105 ± 0.01% and the log reduction at 0.1 µg/mL amounted to 0.09 ± 0.01. In addition, in the data set with HSV-1 [1], the log reduction at 1 µg/mL was 0.6 ± 0.08 and the log reduction at 10 µg/mL is 2.9 ± 0.4. Moreover, in data set [2], the cytotoxic concentration (CC50) was 156 µg/mL and 297 µM. For the same compound, in data set [4], the “reduction of ROS levels in 6-OHDA-treated Neuro-2a cells” value amounted to 20%. The “effect on viability of 6-OHDA-treated Neuro-2a cells (in words)” value in data set [5] is “weak effect on cell viability”. In the data set on HSV-1 [3], the IC50 was 6.6 µg/mL and 12.5 µM; the SI is listed as 23.7 ± 3.1.
As for `Oc1ccc2c(c1)OC[C@H]1c3cc4c(cc3O[C@@H]21)OCO4` [Compound 4, maackiain], in the data set on HSV-1 [1] (0.1 µg/mL), the Ct is 18.1 ± 2.2 and the “−ΔCt” value was 0. In the data set on HSV-1 [1] (1 µg/mL), the Ct is on record as 19.0 ± 2.1 and the “−ΔCt” value is listed as −0.9 ± 0.1. In the data set on HSV-1 [1] (10 µg/mL), the “anti-HSV-1 activity by RT-PCR (in words)” value is recorded as “moderate anti-HSV-1 activity”, the Ct was determined as 20.7 ± 2.3 and the “−ΔCt” value was −2.6 ± 0.3. Besides, in the data set with HSV-1 [1], the activity at 0.1 µg/mL stood at 100%, the activity at 1 µg/mL stood at 53.6 ± 6.4%, the activity at 10 µg/mL stood at 16.5 ± 2.1% and the log reduction at 0.1 µg/mL was 0. Further, in the data set on HSV-1 [1], the log reduction at 1 µg/mL was 0.3 ± 0.04 and the log reduction at 10 µg/mL was 0.8 ± 0.1. Moreover, the CC50 in data set [2] was 152 µg/mL and 536 µM. In data set [5], the “effect on viability of 6-OHDA-treated Neuro-2a cells (in words)” value is given as “weak effect on cell viability”. In the data set on HSV-1 [3], the concentration for half-maximal inhibition (IC50) is 28.3 µg/mL and 99.6 µM; the SI is 5.4 and 5.4 ± 0.7.
